Source: patent US12351576B2, “FGFR inhibitor, preparation method therefor and application thereof” (Abbisko Therapeutics Co., Ltd., priority 2018, dated 2025)
Read-outs that look alike come from different tables or passages of the source.

Key:
FGFR2 = FGFR2 (Homo sapiens (Human), UniProt P21802); assay: In vitro biochemical kinase assay (Caliper Assay), FGFR2; settings: enzyme 2.5 nM, ATP 1 μM, 40 minutes; read-out: Enzymatic activity IC50(nM) FGFR2
Description: (§1) I. In Vitro Biochemical Kinase Assay of FGFR 1˜3
(§2) Caliper Assay was used in the present invention to determine the inhibitory activities of the compounds against FGFR1, FGFR2, and FGFR3. The specific experimental procedure was as follows: • 1. The kinase reaction in the present invention was carried out in 384-well plates, the kinase(Carna) at a certain concentration and ATP at a certain concentration and 1 μM of peptide FAM-P22 (GL Biochem, Cat. No. 112393)) was incubated to react for a certain time at 28° C. in a reaction system consisting of 50 mM HEPES, […], 0.0015% Brij-35 and basic kinase buffer; for FGFR1, the enzyme concentration was 0.25 nM and ATP concentration was 382 μM and the reaction time was 20 minutes; for FGFR2, the enzyme concentration was 2.5 nM, ATP concentration was 1 μM, and the reaction time was 40 minutes; for FGFR3, the enzyme concentration was 8 nM, ATP concentration was 4.7 μM, and the reaction time was 30 minutes: • 2. The reaction was terminated with a stop solution (100 mM HEPES, pH 7.5, 0.2% Caliper coating, reagent, 50 mM EDTA and 0.015% Brij35); • 3. The plate with the terminated kinase reaction was transferred to the Caliper workstation to read the data; • 4. the phosphorylated and unphosphorylated peptides were separated by the Caliper microfluid migration shift technique, and the analyte was transferred by a constant buffer flow through the chip, the migration of the substrate peptide was monitored by the labeled fluorescent signal, and the kinase activity was calculated by the amount of the phosphate-based peptide formed. • 5. IC50 was determined by non-linear regression analysis of percent inhibition at different concentration level of the compound.

FGFR1 = FGFR1 (Homo sapiens (Human), UniProt P11362); assay: In vitro biochemical kinase assay (Caliper Assay), FGFR1; settings: enzyme 0.25 nM, ATP 382 μM, 20 minutes; read-out: Enzymatic activity IC50(nM) FGFR1
Description: as §1, §2

[1] = tested on: H1581 lung cancer cells (FGFR1 gene amplification); assay: Cell proliferation assay (Cell Titer Glo), H1581; assay type: cell-based; settings: 3 days, CTG, read-out: Cellular IC50 (nM) H1581
Description: (§3) II. Cell Proliferation Assay (Cell Titer Glo(CTG) Assay)
(§4) The FGFR signal pathway dependent inhibitory effect of the compound in the present invention on cell proliferation was assessed by survival test using CTG reagent (Promega, 4G7573). Cell lines representative of a variety of tumor types, including H1581 lung cancer cells (FGFR1 gene amplification), Snu-16 gastric cancer cells (FGFR2 gene amplification), and RT112 bladder carcinoma cells (FGFR3-TACC3 fusion) from Nanjing Cobioer Biosciences, were selected for the assay. The specific experimental procedure was as follows: • 1. 90 μL of cells were seeded into a 96-well plate processed with TCM (Costar 43904), and incubated overnight at 37° C. in a 5% CO2 incubator; afterwards, 10 μL of the culture medium containing the compound at 10 fold of its final concentration was added; • 2. The dose-dependent effect was evaluated by a serial dilution of the test compound, starting from 10 μM or a lower concentration. • 3. The cells were incubated at 37° C. under 5% C02 for 3 days, then added 50 μL CTG, and read the data with Envision (Pelkin Elmer) to quantify the ATP level in the cells. The ATP levels in cells with treatment of inhibitor at a variety of concentrations were compared with those in cells of the control group (in which DMSO was added into the medium) to evaluate the compound percent inhibition of cell proliferation/survival. • 4. The compound half growth inhibitory concentration (IC50) was determined in Graphpad Prism by 4-parameter curve fitting.

[2] = tested on: Snu-16 gastric cancer cells (FGFR2 gene amplification); assay: Cell proliferation assay (Cell Titer Glo), Snu-16; assay type: cell-based; settings: Snu-16 cells, 3 days, CTG, read-out: Cellular IC50 (nM) Sun16
Description: as §3, §4

[3] = tested on: RT112 bladder carcinoma cells (FGFR3-TACC3 fusion); assay: Cell proliferation assay (Cell Titer Glo), RT112; assay type: cell-based; settings: Homo sapiens, RT-112, 72 h, 3 days, CTG, read-out: Cellular IC50 (nM) RT112
Description: as §3, §4

FGFR2, sequence (P21802 22-821): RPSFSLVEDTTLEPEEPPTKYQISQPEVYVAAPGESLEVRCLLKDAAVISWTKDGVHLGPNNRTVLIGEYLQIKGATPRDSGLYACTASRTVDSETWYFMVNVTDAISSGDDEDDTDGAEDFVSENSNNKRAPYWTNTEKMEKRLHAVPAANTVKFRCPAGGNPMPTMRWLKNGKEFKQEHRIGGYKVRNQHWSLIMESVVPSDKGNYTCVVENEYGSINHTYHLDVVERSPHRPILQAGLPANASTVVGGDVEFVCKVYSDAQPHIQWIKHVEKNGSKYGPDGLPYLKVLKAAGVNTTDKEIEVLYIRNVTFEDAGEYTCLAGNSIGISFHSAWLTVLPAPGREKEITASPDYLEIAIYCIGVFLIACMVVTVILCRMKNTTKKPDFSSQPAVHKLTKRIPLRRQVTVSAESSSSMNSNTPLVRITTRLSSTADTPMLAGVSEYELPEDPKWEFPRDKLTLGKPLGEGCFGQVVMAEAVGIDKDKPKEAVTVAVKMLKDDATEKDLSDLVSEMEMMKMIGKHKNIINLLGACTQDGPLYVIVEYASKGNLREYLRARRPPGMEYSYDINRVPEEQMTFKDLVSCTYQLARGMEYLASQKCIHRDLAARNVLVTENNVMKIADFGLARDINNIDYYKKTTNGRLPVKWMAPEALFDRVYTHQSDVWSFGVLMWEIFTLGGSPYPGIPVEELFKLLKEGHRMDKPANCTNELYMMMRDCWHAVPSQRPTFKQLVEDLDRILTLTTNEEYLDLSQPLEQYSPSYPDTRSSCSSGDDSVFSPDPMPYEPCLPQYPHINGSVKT
FGFR1, sequence (P11362 22-822): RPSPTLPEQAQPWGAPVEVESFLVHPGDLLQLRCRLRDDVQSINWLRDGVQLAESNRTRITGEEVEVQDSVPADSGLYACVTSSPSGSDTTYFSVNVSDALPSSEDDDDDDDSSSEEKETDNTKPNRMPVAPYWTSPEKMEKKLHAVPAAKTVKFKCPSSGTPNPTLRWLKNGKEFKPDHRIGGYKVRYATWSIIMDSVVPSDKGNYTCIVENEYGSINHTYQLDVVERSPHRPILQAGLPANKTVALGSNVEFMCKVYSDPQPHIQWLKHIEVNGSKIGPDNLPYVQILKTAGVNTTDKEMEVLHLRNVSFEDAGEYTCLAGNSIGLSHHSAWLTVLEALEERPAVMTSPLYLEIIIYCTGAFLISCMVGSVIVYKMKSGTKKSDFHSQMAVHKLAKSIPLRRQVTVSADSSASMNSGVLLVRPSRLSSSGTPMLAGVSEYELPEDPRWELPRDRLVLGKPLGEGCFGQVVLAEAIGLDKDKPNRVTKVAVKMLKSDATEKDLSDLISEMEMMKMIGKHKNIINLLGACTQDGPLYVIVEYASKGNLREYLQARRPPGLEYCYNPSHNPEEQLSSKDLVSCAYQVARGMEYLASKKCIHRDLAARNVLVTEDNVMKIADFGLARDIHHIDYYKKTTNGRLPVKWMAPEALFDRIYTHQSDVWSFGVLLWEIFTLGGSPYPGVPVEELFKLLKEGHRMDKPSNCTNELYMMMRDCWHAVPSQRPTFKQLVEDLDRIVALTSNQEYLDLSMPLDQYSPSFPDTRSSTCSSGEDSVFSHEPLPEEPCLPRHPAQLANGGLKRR

Work on COc1cc(OC)c(Cl)c(-c2cc3cnc(-c4cnn(C)c4)cc3n(CCN3CCOCC3)c2=O)c1Cl [Example 5, 3-(2,6-dichloro-3,5-dimethoxyphenyl)-7-(1-methyl-1H-pyrazol-4-yl)-1-(2-morpholinoethyl)-1,6-naphthyridin-2(1H)-one] yielded an IC50 (FGFR2) of 10 to 50 nM, an IC50 (FGFR1) of 50 to 500 nM and an IC50 ([1]; Homo sapiens, NCI-H1581, 72 h) of 50 to 500 nM. The IC50 ([2]; Homo sapiens, SNU-16, 72 h) was 10 to 50 nM.

In the case of CCn1c(=O)c(-c2c(Cl)c(OC)cc(OC)c2Cl)cc2cnc(-c3cn(C)nc3C)cc21 [Example 9, 3-(2,6-dichloro-3,5-dimethoxyphenyl)-7-(1,3-dimethyl-1H-pyrazol-4-yl)-1-ethyl-1,6-naphthyridin-2(1H)-one], the IC50 (FGFR2) is reported as ≤ 5 nM and the IC50 (FGFR1) is reported as 10 to 50 nM.

With COc1cc(OC)c(F)c(-c2cc3cnc(-c4cnn(CCN5CCOCC5)c4)cc3n(C3CCCC3)c2=O)c1F [Example 34, 1-cyclopentyl-3-(2,6-difluoro-3,5-dimethoxyphenyl)-7-(1-(2-morpholinoethyl)-1H-pyrazol-4-yl)-1,6-naphthyridin-2(1H)-one] the IC50 ([1]; Homo sapiens, NCI-H1581, 72 h) was 10 to 50 nM, the IC50 ([2]; Homo sapiens, SNU-16, 72 h) was ≤ 5 nM and the IC50 [3] was ≤ 5 nM.

CCn1c(=O)c(-c2c(F)c(OC)cc(OC)c2F)cc2cnc(-c3cnn(C)c3)cc21 [Example 25, 3-(2,6-difluoro-3,5-dimethoxyphenyl)-1-ethyl-7-(1-methyl-1H-pyrazol-4-yl)-1,6-naphthyridin-2(1H)-one] was tested, and the IC50 (FGFR2) was ≤ 5 nM, the IC50 (FGFR1) was ≤ 5 nM and the IC50 ([1]; Homo sapiens, NCI-H1581, 72 h) was 50 to 500 nM. The IC50 ([2]; Homo sapiens, SNU-16, 72 h) was 50 to 500 nM.

In the case of CCn1c(=O)c(-c2c(F)c(OC)cc(OC)c2F)cc2cnc(-c3cnn(CCN4CCOCC4)c3)cc21 [Example 29, 3-(2,6-difluoro-3,5-dimethoxyphenyl)-1-ethyl-7-(1-(2-morpholinoethyl)-1H-pyrazol-4-yl)-1,6-naphthyridin-2(1H)-one], the IC50 (FGFR2) is reported as ≤ 5 nM, the IC50 (FGFR1) is reported as 5 to 10 nM and the IC50 ([1]; Homo sapiens, NCI-H1581, 72 h) is reported as 50 to 500 nM. It also gave an IC50 ([2]; Homo sapiens, SNU-16, 72 h) of 10 to 50 nM.

For COc1cc(OC)c(Cl)c(-c2cc3cnc(-c4cnn(C)c4)cc3n([C@H]3CCOC3)c2=O)c1Cl [Example 22, (S)-3-(2,6-dichloro-3,5-dimethoxyphenyl)-7-(1-methyl-1H-pyrazol-4-yl)-1-(tetrahydrofuran-3-yl)-1,6-naphthyridin-2(1H)-one], the IC50 (FGFR2) was ≤ 5 nM, the IC50 (FGFR1) was ≤ 5 nM and the IC50 [1] was 10 to 50 nM. The IC50 [2] was ≤ 5 nM.

COc1cc(OC)c(Cl)c(-c2cc3cnc(-c4cnn(C)c4)cc3n(C(C)C)c2=O)c1Cl [Example 3, 3-(2,6-dichloro-3,5-dimethoxyphenyl)-1-isopropyl-7-(1-methyl-1H-pyrazol-4-yl)-1,6-naphthyridin-2(1H)-one] was tested, and the IC50 (FGFR2) was ≤ 5 nM and the IC50 (FGFR1) was 5 to 10 nM.

In the case of COc1cc(OC)c(Cl)c(-c2cc3cnc(-c4cnn(C)c4)cc3n(C3CCOC3)c2=O)c1Cl (centres unmarked) [Example 7, 3-(2,6-dichloro-3,5-dimethoxyphenyl)-7-(1-methyl-1H-pyrazol-4-yl)-1-(tetrahydrofuran-3-yl)-1,6-naphthyridin-2(1H)-one], the IC50 (FGFR2) is reported as ≤ 5 nM, the IC50 (FGFR1) is reported as ≤ 5 nM and the IC50 ([1]; Homo sapiens, NCI-H1581, 72 h) is reported as 10 to 50 nM. For the same compound, the IC50 ([2]; Homo sapiens, SNU-16, 72 h) was 5 to 10 nM.

For COc1cc(OC)c(F)c(-c2cc3cnc(-c4cnn(CCN5CCOCC5)c4)cc3n(C(C)C)c2=O)c1F [Example 30, 3-(2,6-difluoro-3,5-dimethoxyphenyl)-1-isopropyl-7-(1-(2-morpholinoethyl)-1H-pyrazol-4-yl)-1,6-naphthyridin-2(1H)-one], the IC50 (FGFR2) was ≤ 5 nM, the IC50 (FGFR1) was ≤ 5 nM and the IC50 ([1]; Homo sapiens, NCI-H1581, 72 h) was 10 to 50 nM. For the same compound, the IC50 ([2]; Homo sapiens, SNU-16, 72 h) was ≤ 5 nM.

CCn1c(=O)c(-c2c(Cl)c(OC)cc(OC)c2Cl)cc2cnc(-c3cn(C4CCN(C)C4)nc3C)cc21 (centres unmarked) [Example 46, 3-(2,6-dichloro-3,5-dimethoxyphenyl)-1-ethyl-7-(3-methyl-1-(1-methylpyrrolidin-3-yl)-1H-pyrazol-4-yl)-1,6-naphthyridin-2(1H)-one] was tested, and the IC50 (FGFR2) was ≤ 5 nM, the IC50 (FGFR1) was 10 to 50 nM and the IC50 ([1]; Homo sapiens, NCI-H1581, 72 h) was 50 to 500 nM. The IC50 ([2]; Homo sapiens, SNU-16, 72 h) was 10 to 50 nM.

COc1cc(OC)c(Cl)c(-c2cc3cnc(-c4cnn(CCN(C)C)c4)cc3n(C3CCOC3)c2=O)c1Cl (centres unmarked) [Example 48, 3-(2,6-dichloro-3,5-dimethoxyphenyl)-7-(1-(2-(dimethylamino)ethyl)-1H-pyrazol-4-yl)-1-(tetrahydrofuran-3-yl)-1,6-naphthyridin-2(1H)-one] was tested, and the IC50 (FGFR2) was ≤ 5 nM, the IC50 (FGFR1) was 10 to 50 nM and the IC50 ([1]; Homo sapiens, NCI-H1581, 72 h) was 50 to 500 nM. For the same compound, the IC50 ([2]; Homo sapiens, SNU-16, 72 h) was 5 to 10 nM.

In the case of CCn1c(=O)c(-c2c(Cl)c(OC)cc(OC)c2Cl)cc2cnc(-c3cnn(C)c3)cc21 [Example 1, 3-(2,6-dichloro-3,5-dimethoxyphenyl)-1-ethyl-7-(1-methyl-1H-pyrazol-4-yl)-1,6-naphthyridin-2(1H)-one], the IC50 (FGFR2) is reported as ≤ 5 nM and the IC50 (FGFR1) is reported as 10 to 50 nM.

For CCn1c(=O)c(-c2c(Cl)c(OC)cc(OC)c2Cl)cc2cnc(-c3cnn(C4CN(S(C)(=O)=O)C4)c3)cc21 [Example 11, 3-(2,6-dichloro-3,5-dimethoxyphenyl)-1-ethyl-7-(1-(1-(methylsulfonyl)azetidin-3-yl)-1H-pyrazol-4-yl)-1,6-naphthyridin-2(1H)-one], the IC50 (FGFR2) was ≤ 5 nM, the IC50 (FGFR1) was 10 to 50 nM and the IC50 ([1]; Homo sapiens, NCI-H1581, 72 h) was 50 to 500 nM. It also gave an IC50 ([2]; Homo sapiens, SNU-16, 72 h) of 10 to 50 nM.

With COc1cc(OC)c(Cl)c(-c2cc3cnc(-c4cnn(C)c4)cc3n(CC3CC3)c2=O)c1Cl [Example 4, 1-(cyclopropylmethyl) 3-(2,6-dichloro-3,5-dimethoxyphenyl)-7-(1-methyl-1H-pyrazol-4-yl)-1,6-naphthyridin-2(1H)-one] the IC50 (FGFR2) was ≤ 5 nM, the IC50 (FGFR1) was 10 to 50 nM and the IC50 ([1]; Homo sapiens, NCI-H1581, 72 h) was 50 to 500 nM. The IC50 ([2]; Homo sapiens, SNU-16, 72 h) was 50 to 500 nM.

In the case of COc1cc(OC)c(F)c(-c2cc3cnc(-c4cnn(C)c4)cc3n(C3CCCC3)c2=O)c1F [Example 33, 1-cyclopentyl-3-(2,6-difluoro-3,5-dimethoxyphenyl)-7-(1-methyl-1H-pyrazol-4-yl)-1,6-naphthyridin-2(1H)-one], the IC50 (FGFR2) is reported as ≤ 5 nM, the IC50 (FGFR1) is reported as ≤ 5 nM and the IC50 ([1]; Homo sapiens, NCI-H1581, 72 h) is reported as 10 to 50 nM. The IC50 ([2]; Homo sapiens, SNU-16, 72 h) was ≤ 5 nM.

Compound CCn1c(=O)c(-c2cc(OC)cc(OC)c2Cl)cc2cnc(-c3cnn(C)c3)cc21 [Example 13, 3-(2-chloro-3,5-dimethoxyphenyl)-1-ethyl-7-(1-methyl-1H-pyrazol-4-yl)-1,6-naphthyridin-2(1H)-one] has an IC50 (FGFR2) of 5 to 10 nM and an IC50 (FGFR1) of 50 to 500 nM.

For COc1cc(OC)c(F)c(-c2cc3cnc(-c4cnn(CCN5CCOCC5)c4)cc3n(C3CCOC3)c2=O)c1F (centres unmarked) [Example 35, 3-(2,6-difluoro-3,5-dimethoxyphenyl)-7-(1-(2-morpholinoethyl)-1H-pyrazol-4-yl)-1-(tetrahydrofuran-3-yl)-1,6-naphthyridin-2(1H)-one], the IC50 ([1]; Homo sapiens, NCI-H1581, 72 h) was 50 to 500 nM, the IC50 ([2]; Homo sapiens, SNU-16, 72 h) was 5 to 10 nM and the IC50 [3] was ≤ 5 nM.

With COc1cc(OC)c(F)c(-c2cc3cnc(-c4ccc(C(C)(C)C#N)nc4)cc3n(C3CCOC3)c2=O)c1F (centres unmarked) [Example 40, 2-(5-(3-(2,6-difluoro-3,5-dimethoxyphenyl)-2-oxo-1-(tetrahydrofuran-3-yl)-1,2-dihydro-1,6-naphthyridin-7-yl)pyridin-2-yl)-2-methylpropanenitrile] the IC50 (FGFR2) was ≤ 5 nM, the IC50 (FGFR1) was 5 to 10 nM and the IC50 ([1]; Homo sapiens, NCI-H1581, 72 h) was 50 to 500 nM. It also gave an IC50 ([2]; Homo sapiens, SNU-16, 72 h) of 5 to 10 nM.
